Laboratory results reported in patent publication US5827860A, “Peptidyl heterocycles useful in the treatment of thrombin related disorders” (Ortho Pharmaceutical Corporation, priority 1995, dated 1998).
Where two headings read alike, the source gives them in different places.

Columns and labels:
[1] = rat, in vivo, iv
Protocol: (§1) An ex vivo assay was conducted to determine the duration of action of the compounds of Formula I. For this i.v. assay male rats (Long Evans, 350-500 g) were implanted with a teflon cannulae via the femoral artery while under anesthesia (pentobarbital i.p., 35 mg/kg). […] The animals were allowed to recover for at least 24 h after the surgical procedure.
(§2) The test compound was dispersed in water and delivered to the animal (0.25 mL) via the femoral vein. […] A plasma sample was obtained by centrifuging the blood at 10,000 rpm for 5 min. This sample is analyzed for thrombin inhibition using the chromogenic assay, described below.
(§3) Datum was collected over a 30 min period and the initial rate of substrate hydrolysis (V0 (mOD/min)) was calculated with an analysis program (Softmax, Molecular Devices).
(§4) The time to half plasma elimination (t 1/2) was calculated from the slope of V0 vs. time, using the following equation: t 1/2=-1.6 slope.

[2] = Ex vivo assay for duration of action after i.v. dosing (time to half plasma elimination); settings: male rats, from slope of V0 vs. time of plasma thrombin inhibition
Protocol: as §1, §2, §3, §4

[3] = Ex vivo bioavailability assay, drug administered i.v. and p.o.; settings: male rats, p.o. vs i.v., drug in plasma extrapolated from thrombin inhibition
Protocol: Bioavailability was determined by an ex vivo assay which incorporated hydrolysis rates from drug administered both i.v. and p.o. In this assay male rats were prepared as described above with a teflon tube implanted in their femoral artery.
A standard curve was generated by adding of drug or vehicle (100 μL) to whole blood (900 μL) followed by incubating (5 min) and centrifuging to obtain plasma. The percentage of thrombin inhibition was calculated by comparing the V0 of the vehicle to that of the drug treated samples. Datum from several runs were normalized with a statistical package (SAS) to generate a standard curve.
The percentage of thrombin inhibition in the treated animals was calculated by comparing the V0 prior to treatment with the V0 obtained from samples collected after treatment. The percent inhibition was applied to the standard curve (generated above) using the statistical package (SAS) and the quantity of drug in the sample was extrapolated.
Bioavailability (Bioavail.) was calculated from the plots of the extrapolated drug in sample vs. time for both i.v. and p.o. administration using the following equation:
%Bioavail.=(i.v. dose administered/p.o. dose administered)×(area
under p.o. curve/area under curve i.v.)

Compound	t1/2 (time to half plasma elimination) [1] [min]	t1/2 (time to half plasma elimination) [2] [min]	Bioavail. [3] [%]
CN[C@H](Cc1ccccc1)C(=O)N1CCC[C@H]1C(=O)N[C@@H](CCCNC(=N)N)C(=O)c1nc2c(s1)CCCC2 [Compound 51]	17	–	–
CNC(Cc1ccccc1)C(=O)N1CCCC1C(=O)NC(CCCNC(=N)N)C(=O)c1nc2ccccc2[nH]1 (centres unmarked) [Compound 21]	5	–	–
CN[C@H](Cc1ccc(F)cc1)C(=O)N1CCC[C@H]1C(=O)N[C@@H](CCCNC(=N)N)C(=O)c1nc2ccccc2s1 [Compound 32, N-METHYL-D-(4-FLUOROPHENYL)ALANYL-N-[4-[(AMINOIMINOMETHYL)AMINO]-1S-[(BENXOTHIAZOL-2-YL)CARBONYL]BUTYL]-L-PROLINAMIDE]	19	–	–
CN[C@@H](C(=O)N1CCC[C@H]1C(=O)N[C@@H](CCCNC(=N)N)C(=O)c1nc2ccccc2s1)C1CCCCC1 [Compound 37, N-METHYL-D-CYCLOHEXYLGLYCYL-N-[4-[(AMINOIMINOMETHYL)AMINO]-1S-[(BENXOTHIAZOL-2-YL)CARBONYL]BUTYL]-L-PROLINAMIDE]	42	–	–
CN[C@H](Cc1ccccc1)C(=O)N1CCC[C@H]1C(=O)N[C@@H](CCCNC(=N)N)C(=O)c1nc2ccc3ccccc3c2s1 [Compound 52]	5	–	–
CN[C@H](Cc1ccccc1)C(=O)N1CCC[C@H]1C(=O)N[C@@H](CCCNC(=N)N)C(=O)c1nc2ccc(O)cc2s1 [Compound 25]	–	14	–
CN[C@H](Cc1ccccc1)C(=O)N1CCC[C@H]1C(=O)N[C@@H](CCCNC(=N)N)C(=O)c1nc2ccccc2s1 [Compound 1, N-METHYL-D-PHENYLALANYL-N-[4-[(AMINOIMINOMETHYL)AMINO]-1S-[(BENXOTHIAZOL-2- YL)CARBONYL]BUTYL]-L-PROLINAMIDE]	19	–	1.2
CN[C@H](Cc1ccccc1)C(=O)N1CCC[C@H]1C(=O)N[C@@H](CCCNC(=N)N)C(=O)c1nc2ccc(C(=O)O)cc2s1 [Compound 13]	25	–	–
CNC(C(=O)N1CCCC1C(=O)NC(CCCNC(=N)N)C(=O)c1nc2ccccc2s1)c1ccccc1 [Compound 33, N-METHYL-D-PHENYLGLYCYL-N-[4-[(AMINOIMINOMETHYL)AMINO]-1S-[(BENXOTHIAZOL-2- YL)CARBONYL]BUTYL]-L-PROLINAMIDE]	18	–	–
CC(=O)N[C@H](Cc1ccccc1)C(=O)N1CCC[C@H]1C(=O)N[C@@H](CCCNC(=N)N)C(=O)c1nc2ccccc2s1.O=C(O)C(F)(F)F [Compound 35]	11	–	–
CN[C@H](Cc1c(F)c(F)c(F)c(F)c1F)C(=O)N1CCC[C@H]1C(=O)N[C@@H](CCCNC(=N)N)C(=O)c1nc2ccccc2s1 [Compound 30]	6	–	–
CNC(C(=O)N1CCC[C@H]1C(=O)N[C@@H](CCCNC(=N)N)C(=O)c1nc2ccccc2s1)c1ccccc1 (some centres unmarked) [Compound 34]	–	26	–
CN[C@H](Cc1ccccc1)C(=O)N1CCC[C@H]1C(=O)N[C@@H](CCCNC(=N)N)C(=O)c1nc2ccc(C(=O)OC)cc2s1 [Compound 12]	43	–	–
CN[C@H](CC1CCCCC1)C(=O)N1CCC[C@H]1C(=O)N[C@@H](CCCNC(=N)N)C(=O)c1nc2ccccc2s1 [Compound 29, N-METHYL-D-CYCLOHEXYLALANYL-N-[4-[(AMINOIMINOMETHYL)AMINO]-1S-[(BENXOTHIAZOL-2-YL)CARBONYL]BUTYL]-L-PROLINAMIDE]	14	–	–
CNC(Cc1ccccc1)C(=O)N1CCCC1C(=O)NC(CCCNC(=N)N)C(=O)c1nccs1 (centres unmarked) [Compound 4]	16	–	–
CN[C@H](Cc1ccccc1)C(=O)N1CCC[C@H]1C(=O)N[C@@H](CCCNC(=N)N)C(=O)c1nc(C(=O)O)cs1 [Compound 54]	15	–	–
CN[C@H](Cc1ccccc1)C(=O)N1CCC[C@H]1C(=O)N[C@@H](CCCNC(=N)N)C(=O)c1nc2ccc(CO)cc2s1 [Compound 15]	16	–	–
CN[C@H](Cc1ccccc1)C(=O)N1CCC[C@H]1C(=O)N[C@@H](CCCNC(=N)N)C(=O)c1nc2ccc(F)cc2s1 [Compound 17]	8	–	–
CCOC(=O)c1csc(C(=O)[C@H](CCCNC(=N)N)NC(=O)[C@@H]2CCCN2C(=O)[C@@H](Cc2ccccc2)NC)n1 [Compound 19]	14	–	–
